These results are taken from US11629143B2, “HipK4 inhibitors and uses thereof” (Vibliome Therapeutics, LLC, priority 2020, dated 2023).

Common to all, as to assay: Kinase panel (mobility shift)
Common to all, as to type: biochemical

One experiment addresses EPH-A5 (Homo sapiens, UniProt P54756). The following applies: at 5 um. The procedure, abridged:
(§1)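 Tested at a single 5 um concentration within a 299-kinase panel, compounds were scored by electrophoretic mobility shift of a fluorescent substrate into product. Categories: A, 95% or greater; B, 90%-94%; C, 80%-89%.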

Another experiment has as its target RIPK2 (Homo sapiens, UniProt O43353). The procedure, abridged: as §1
Another experiment has as its target SRC (Homo sapiens, UniProt P12931). The procedure, abridged:
as §1

A further experiment deals with PDGFR-b (Homo sapiens, UniProt P09619). The procedure, abridged: as §1
Sequence of PDGFR-b (P09619 33-1106, species assumed): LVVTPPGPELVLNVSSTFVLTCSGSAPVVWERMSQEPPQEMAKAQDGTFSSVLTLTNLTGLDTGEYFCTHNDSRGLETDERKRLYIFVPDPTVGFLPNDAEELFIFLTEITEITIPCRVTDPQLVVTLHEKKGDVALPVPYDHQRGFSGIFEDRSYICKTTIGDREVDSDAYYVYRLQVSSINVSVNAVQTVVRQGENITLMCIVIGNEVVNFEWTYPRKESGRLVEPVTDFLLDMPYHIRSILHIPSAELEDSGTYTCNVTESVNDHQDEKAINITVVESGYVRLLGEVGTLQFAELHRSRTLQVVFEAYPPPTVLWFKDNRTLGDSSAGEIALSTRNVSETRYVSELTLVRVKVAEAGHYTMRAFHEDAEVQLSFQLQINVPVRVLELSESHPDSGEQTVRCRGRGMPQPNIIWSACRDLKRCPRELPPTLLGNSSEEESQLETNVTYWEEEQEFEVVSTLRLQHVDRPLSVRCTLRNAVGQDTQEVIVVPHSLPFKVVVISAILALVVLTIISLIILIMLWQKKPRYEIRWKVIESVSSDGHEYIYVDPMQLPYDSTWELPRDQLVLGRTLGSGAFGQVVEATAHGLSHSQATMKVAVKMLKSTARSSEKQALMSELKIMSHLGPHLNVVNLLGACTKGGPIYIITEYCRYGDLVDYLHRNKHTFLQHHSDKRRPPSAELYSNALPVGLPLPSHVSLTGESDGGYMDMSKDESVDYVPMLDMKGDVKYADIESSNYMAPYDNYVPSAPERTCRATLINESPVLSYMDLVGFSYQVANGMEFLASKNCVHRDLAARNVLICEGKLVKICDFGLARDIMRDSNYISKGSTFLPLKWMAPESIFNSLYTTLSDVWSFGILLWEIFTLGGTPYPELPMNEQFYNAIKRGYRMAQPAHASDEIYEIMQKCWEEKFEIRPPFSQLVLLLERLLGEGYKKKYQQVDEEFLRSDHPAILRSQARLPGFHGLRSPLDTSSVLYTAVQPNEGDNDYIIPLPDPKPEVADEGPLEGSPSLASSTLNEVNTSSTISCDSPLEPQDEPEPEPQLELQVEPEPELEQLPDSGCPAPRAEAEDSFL
In a further experiment the target is T1, EPH-A6 (Homo sapiens, UniProt Q9UF33).
T1 sequence (Q9UF33 23-1036): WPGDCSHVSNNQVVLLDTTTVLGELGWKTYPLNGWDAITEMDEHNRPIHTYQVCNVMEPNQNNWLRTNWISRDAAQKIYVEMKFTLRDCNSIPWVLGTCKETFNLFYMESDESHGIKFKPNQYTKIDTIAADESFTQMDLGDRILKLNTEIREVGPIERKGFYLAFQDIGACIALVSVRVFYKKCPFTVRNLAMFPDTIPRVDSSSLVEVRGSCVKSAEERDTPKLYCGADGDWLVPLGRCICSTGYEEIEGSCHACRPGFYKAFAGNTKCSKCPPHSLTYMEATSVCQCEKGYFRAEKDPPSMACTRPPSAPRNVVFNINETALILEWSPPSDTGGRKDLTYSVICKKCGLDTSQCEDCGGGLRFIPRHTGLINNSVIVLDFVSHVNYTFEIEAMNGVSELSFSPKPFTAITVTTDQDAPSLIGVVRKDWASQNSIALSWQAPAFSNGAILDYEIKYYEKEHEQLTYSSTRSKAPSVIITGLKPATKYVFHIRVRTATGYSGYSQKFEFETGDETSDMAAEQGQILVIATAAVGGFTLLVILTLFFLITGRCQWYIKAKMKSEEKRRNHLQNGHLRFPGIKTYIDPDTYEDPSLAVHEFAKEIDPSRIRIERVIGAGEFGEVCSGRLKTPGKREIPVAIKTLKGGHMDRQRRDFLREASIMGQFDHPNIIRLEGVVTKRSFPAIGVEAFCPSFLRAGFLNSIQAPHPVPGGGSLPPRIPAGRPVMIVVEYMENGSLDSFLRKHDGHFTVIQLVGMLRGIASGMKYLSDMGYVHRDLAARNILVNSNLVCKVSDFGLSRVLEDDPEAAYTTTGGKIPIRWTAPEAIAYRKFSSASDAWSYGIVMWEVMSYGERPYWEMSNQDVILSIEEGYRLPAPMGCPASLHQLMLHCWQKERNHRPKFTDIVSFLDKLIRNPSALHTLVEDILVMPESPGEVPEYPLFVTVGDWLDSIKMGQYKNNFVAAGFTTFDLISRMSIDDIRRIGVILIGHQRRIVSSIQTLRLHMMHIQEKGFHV
The procedure, abridged:
as §1

In a further experiment the target is T2, MER (Homo sapiens, UniProt Q12866).
T2 sequence (Q12866 21-999): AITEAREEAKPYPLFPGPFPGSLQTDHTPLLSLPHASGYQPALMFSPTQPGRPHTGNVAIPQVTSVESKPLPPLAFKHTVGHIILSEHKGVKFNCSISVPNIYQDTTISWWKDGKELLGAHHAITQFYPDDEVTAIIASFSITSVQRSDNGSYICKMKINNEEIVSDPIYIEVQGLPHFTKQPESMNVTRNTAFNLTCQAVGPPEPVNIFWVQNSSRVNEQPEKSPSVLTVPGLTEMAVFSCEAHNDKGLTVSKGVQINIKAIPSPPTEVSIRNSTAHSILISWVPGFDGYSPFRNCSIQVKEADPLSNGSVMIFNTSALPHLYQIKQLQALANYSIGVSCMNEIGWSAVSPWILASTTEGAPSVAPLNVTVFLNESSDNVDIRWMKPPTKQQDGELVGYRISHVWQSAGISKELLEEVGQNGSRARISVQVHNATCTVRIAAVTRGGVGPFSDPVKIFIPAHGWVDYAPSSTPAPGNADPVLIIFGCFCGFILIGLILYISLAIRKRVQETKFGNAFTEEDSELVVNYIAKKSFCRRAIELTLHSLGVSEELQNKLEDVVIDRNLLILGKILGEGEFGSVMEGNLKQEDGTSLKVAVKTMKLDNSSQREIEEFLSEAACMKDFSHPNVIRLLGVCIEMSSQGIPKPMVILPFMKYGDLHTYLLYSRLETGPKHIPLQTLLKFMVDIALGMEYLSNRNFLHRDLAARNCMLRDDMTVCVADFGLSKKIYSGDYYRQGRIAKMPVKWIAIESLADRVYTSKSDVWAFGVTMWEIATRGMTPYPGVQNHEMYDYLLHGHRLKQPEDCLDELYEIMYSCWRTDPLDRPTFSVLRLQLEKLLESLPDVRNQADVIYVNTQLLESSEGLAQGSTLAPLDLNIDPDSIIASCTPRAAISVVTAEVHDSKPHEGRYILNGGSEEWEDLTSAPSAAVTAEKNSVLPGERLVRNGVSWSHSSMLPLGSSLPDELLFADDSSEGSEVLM
The procedure, abridged:
as §1

For another experiment, the target named is P38-a (Homo sapiens, UniProt Q16539). The note with it: at 5 um. The procedure, abridged:
as §1

Sequence of P38-a (Q16539 whole entry): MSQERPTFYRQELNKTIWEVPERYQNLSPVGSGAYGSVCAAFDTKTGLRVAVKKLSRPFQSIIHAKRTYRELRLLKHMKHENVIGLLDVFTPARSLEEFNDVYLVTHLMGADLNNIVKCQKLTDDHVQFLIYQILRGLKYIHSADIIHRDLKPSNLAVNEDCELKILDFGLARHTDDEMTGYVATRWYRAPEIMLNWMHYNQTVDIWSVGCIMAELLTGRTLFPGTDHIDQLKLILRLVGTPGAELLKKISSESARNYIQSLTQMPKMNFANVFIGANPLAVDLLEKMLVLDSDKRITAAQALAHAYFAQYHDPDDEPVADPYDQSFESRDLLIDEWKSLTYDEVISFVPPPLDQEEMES
Sequence of SRC (P12931 whole entry, species assumed): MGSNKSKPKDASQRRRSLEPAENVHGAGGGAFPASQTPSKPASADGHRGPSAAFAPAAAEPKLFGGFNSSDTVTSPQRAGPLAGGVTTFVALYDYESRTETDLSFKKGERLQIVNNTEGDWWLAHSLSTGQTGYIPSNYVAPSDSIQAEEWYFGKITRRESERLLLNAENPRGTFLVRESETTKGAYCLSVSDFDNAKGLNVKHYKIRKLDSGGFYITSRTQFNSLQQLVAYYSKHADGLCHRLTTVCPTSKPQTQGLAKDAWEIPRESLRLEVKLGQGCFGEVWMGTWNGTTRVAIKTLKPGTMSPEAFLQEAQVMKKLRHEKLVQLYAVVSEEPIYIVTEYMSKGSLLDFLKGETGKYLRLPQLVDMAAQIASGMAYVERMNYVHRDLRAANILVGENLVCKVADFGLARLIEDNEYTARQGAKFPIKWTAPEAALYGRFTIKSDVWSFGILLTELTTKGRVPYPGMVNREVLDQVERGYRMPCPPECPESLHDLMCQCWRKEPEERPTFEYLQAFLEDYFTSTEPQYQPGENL
Sequence of EPH-A5 (P54756 25-1037, species assumed): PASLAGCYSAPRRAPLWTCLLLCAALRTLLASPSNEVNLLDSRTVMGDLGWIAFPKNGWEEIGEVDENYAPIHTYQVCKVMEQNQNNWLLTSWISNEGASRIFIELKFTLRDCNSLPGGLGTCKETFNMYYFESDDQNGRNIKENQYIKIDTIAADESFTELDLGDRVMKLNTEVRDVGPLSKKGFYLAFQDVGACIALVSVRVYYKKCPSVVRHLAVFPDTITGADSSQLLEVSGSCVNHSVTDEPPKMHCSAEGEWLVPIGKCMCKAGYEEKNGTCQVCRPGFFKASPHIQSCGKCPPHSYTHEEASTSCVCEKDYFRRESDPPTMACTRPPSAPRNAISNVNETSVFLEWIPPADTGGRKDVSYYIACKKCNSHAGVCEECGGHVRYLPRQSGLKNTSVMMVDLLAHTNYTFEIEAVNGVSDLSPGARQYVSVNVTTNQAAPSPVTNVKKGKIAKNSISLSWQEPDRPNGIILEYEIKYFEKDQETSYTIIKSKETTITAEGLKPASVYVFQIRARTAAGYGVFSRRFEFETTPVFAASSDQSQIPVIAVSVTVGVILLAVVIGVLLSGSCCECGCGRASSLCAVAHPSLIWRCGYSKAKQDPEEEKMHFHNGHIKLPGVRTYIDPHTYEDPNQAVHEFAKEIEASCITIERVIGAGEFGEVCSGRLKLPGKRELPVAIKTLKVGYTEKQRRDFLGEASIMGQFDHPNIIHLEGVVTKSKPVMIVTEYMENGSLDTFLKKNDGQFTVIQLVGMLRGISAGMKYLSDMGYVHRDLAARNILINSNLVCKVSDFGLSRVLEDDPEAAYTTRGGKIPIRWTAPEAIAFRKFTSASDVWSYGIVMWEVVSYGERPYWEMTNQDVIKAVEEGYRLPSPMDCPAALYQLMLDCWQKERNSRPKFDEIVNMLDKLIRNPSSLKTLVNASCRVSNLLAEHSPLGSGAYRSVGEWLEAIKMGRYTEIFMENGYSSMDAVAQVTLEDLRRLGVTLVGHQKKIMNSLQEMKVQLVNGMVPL
Sequence of RIPK2 (O43353 whole entry, species assumed): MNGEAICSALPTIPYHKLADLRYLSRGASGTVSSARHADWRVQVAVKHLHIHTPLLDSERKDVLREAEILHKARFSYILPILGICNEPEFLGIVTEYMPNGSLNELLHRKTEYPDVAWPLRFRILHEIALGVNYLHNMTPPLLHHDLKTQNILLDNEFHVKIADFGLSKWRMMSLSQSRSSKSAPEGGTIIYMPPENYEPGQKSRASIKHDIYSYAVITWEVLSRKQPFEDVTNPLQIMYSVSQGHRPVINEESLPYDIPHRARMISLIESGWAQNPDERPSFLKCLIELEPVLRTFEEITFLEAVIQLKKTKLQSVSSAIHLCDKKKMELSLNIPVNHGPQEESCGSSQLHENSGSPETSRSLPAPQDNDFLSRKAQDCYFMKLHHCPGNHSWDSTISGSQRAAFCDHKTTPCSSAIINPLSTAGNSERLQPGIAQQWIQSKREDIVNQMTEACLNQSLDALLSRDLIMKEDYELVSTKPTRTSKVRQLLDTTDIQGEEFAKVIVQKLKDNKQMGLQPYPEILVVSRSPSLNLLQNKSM

As usually defined, the inhibition is how much of the control response was suppressed. With `CSc1nc(C(=O)Nc2ccc(Oc3ccnc(N)c3Cl)c(F)c2)c(-c2ccc(F)cc2)o1` [Compound 1], on EPH-A5, the “inhibition of kinase activity, EPH-A5” value is on record as “E (category E is less than 50%)”. Also, the inhibition at 5 µM at RIPK2, at SRC, on PDGFR-b, on EPH-A6 and on MER was less than 50% in each case. Moreover, the “inhibition of kinase activity, P38-a” value on P38-a is recorded as “D (category D for 50-79)”.
For the molecule `CSc1nc(C(=O)Nc2ccc(Oc3cc4cnn(C)c4cc3Br)c(F)c2)c(-c2ccc(F)cc2)o1` [Compound 2], on EPH-A5, the “inhibition of kinase activity, EPH-A5” value is “D (category D for 50-79)”. The inhibition at 5 µM is less than 50% on RIPK2; less than 50% at SRC; less than 50% at PDGFR-b; 50 to 79% on EPH-A6; less than 50% on MER. For the same molecule, the “inhibition of kinase activity, P38-a” value at P38-a is recorded as “D (category D for 50-79)”.
With `CNC(=O)c1cc(Oc2ccc(NC(=O)c3nc(SC)oc3-c3ccc(F)cc3Cl)cc2)ccn1` [Compound 3], on EPH-A5, the “inhibition of kinase activity, EPH-A5” value is “E (category E is less than 50%)”. Besides, the inhibition at 5 µM on RIPK2 was 90 to 94%; at SRC it was 80 to 89%; at PDGFR-b, less than 50%; on EPH-A6, 50 to 79%; at MER it was 90 to 94%. The “inhibition of kinase activity, P38-a” value at P38-a is on record as “E (category E is less than 50%)”.
`CNC(=O)c1cc(Oc2ccc(NC(=O)c3nc(SC)oc3-c3ccc(F)c(F)c3)cc2)ccn1` [Compound 4]: at EPH-A5, the “inhibition of kinase activity, EPH-A5” value is recorded as “E (category E is less than 50%)”. The inhibition at 5 µM at RIPK2 is 80 to 89%; on SRC, less than 50%; on PDGFR-b, less than 50%; on EPH-A6, 50 to 79%; on MER, 50 to 79%. In addition, the “inhibition of kinase activity, P38-a” value on P38-a is given as “C (C=80%-89% at 5 um)”.
Consider `CNC(=O)c1cc(Oc2ccc(NC(=O)c3nc(SC)oc3-c3ccc(Cl)s3)cc2)ccn1` [Compound 5], for which the “inhibition of kinase activity, EPH-A5” value on EPH-A5 is given as “E (category E is less than 50%)”. Further, the inhibition at 5 µM is 50 to 79% on RIPK2; less than 50% on SRC; less than 50% on PDGFR-b; 50 to 79% at EPH-A6; less than 50% on MER. In addition, the “inhibition of kinase activity, P38-a” value at P38-a is “E (category E is less than 50%)”.
On to `CNC(=O)c1cc(Oc2ccc(NC(=O)c3nc(SC)oc3-c3ccc(F)cc3F)cc2)ccn1` [Compound 6], for which the “inhibition of kinase activity, EPH-A5” value at EPH-A5 was “E (category E is less than 50%)”. For the same molecule, the inhibition at 5 µM on RIPK2 is not below 95%; on SRC it was 80 to 89%; on PDGFR-b, less than 50%; on EPH-A6 it was not below 95%; at MER, 90 to 94%. Moreover, at P38-a, the “inhibition of kinase activity, P38-a” value was “E (category E is less than 50%)”.
In the case of `CNC(=O)c1cc(Oc2ccc(NC(=O)c3nc(SC)oc3-c3ccc(OC)cc3)cc2)ccn1` [Compound 7], on EPH-A5, the “inhibition of kinase activity, EPH-A5” value was “E (category E is less than 50%)”. The inhibition at 5 µM at RIPK2, on SRC, at PDGFR-b, on EPH-A6 and on MER was less than 50% in each case. Moreover, the “inhibition of kinase activity, P38-a” value at P38-a is reported as “E (category E is less than 50%)”.
As to `CSc1nc(C(=O)Nc2ccc(Oc3ccnc(-c4cnn(C)c4)c3)c(F)c2)c(-c2ccc(F)cc2)o1` [Compound 11], the “inhibition of kinase activity, EPH-A5” value on EPH-A5 is “C (C=80%-89% at 5 um)”. In addition, the inhibition at 5 µM at RIPK2 was 50 to 79%; at SRC, 50 to 79%; on PDGFR-b, less than 50%; at EPH-A6 it was not below 95%; on MER, 90 to 94%. The “inhibition of kinase activity, P38-a” value on P38-a is listed as “B (B=90%-94% at 5 um)”.
